≈ marks a conversion by molar mass, not a printed value.
Tests used:
[1] = tested on: M. immunogenum group; assay: MIC (CLSI broth dilution), RGM isolates; type: cell-based; conditions: M. immunogenum
[2] = tested on: M. fortuitum group; assay: MIC (CLSI broth dilution), RGM isolates; type: cell-based
[3] = tested on: M. mucogenium group; assay: MIC (CLSI broth dilution), RGM isolates; type: cell-based
[4] = tested on: M. abscessus; conditions: strains of M. abscessus; Wallace et al.; cited from earlier work
[5] = tested on: M. smegmatis group; assay: MIC (CLSI broth dilution), RGM isolates; type: cell-based
[6] = tested on: M. abscessus complex; assay: MIC (CLSI broth dilution), RGM isolates; type: cell-based
[7] = tested on: rapid-growing mycobacteria (RGM) isolates; assay: MIC (CLSI broth dilution), all RGM isolates; type: cell-based, nontuberculous mycobacteria; conditions: all 50 RGM isolates
[8] = tested on: Mycobacterium chelonae; assay: MIC by broth microdilution in CAMHB, clinical isolates; type: cell-based
Protocol: (§1) A total of 24 clinical isolates of Mycobacterium abscessus, 22 clinical isolates of Mycobacterium chelonae and 20 clinical isolates of Mycobacterium fortuitum were tested in the study. The study also used the antibiotics tigecycline, doxycycline and amikacin for comparison purposes. […] Amikacin was dissolved in DMSO prior to freezing at −20° C. For susceptibility testing, stock solutions of antibiotic compounds were serially diluted in 50 μL of cation adjusted Mueller-Hinton broth (CAMHB) in polystryrene 96-well round-bottom microtiter plates. To each well, 50 μL of the appropriate mycobacterial cell suspension was added to yield a final concentration of about 1×10^5 CFU/mL. The inoculum used for each isolate was measured by titration in saline with Tween 80 and plating on MH agar. The Mycobacterium abscessus and Mycobacterium fortuitum titer plates were incubated at 37° C. in ambient air for 3-4 days and 5-7 days, respectively. The Mycobacterium chelonae titer plates were incubated at 30° C. in ambient air for 3-5 days. Each isolate was tested at least in duplicate. The MIC was defined as the lowest concentration of antimicrobial agent yielding no visible turbidity.

[9] = tested on: Mycobacterium fortuitum; assay: as above; type: cell-based
Protocol: as §1

[10] = tested on: Mycobacterium abscessus; assay: as above; type: cell-based
Protocol: as §1

[11] = tested on: M. chelonae; assay: MIC (CLSI broth dilution), RGM isolates; type: cell-based
[12] = 24 clinical isolates (tigecycline: subset N=14)

## C[C@H]1c2cccc(O)c2C(=O)C2=C(O)[C@]3(O)C(=O)C(C(N)=O)=C(O)[C@@H](N(C)C)[C@@H]3[C@@H](O)[C@@H]21 [Doxycycline, doxycycline]
[1]; isolate 35, M. immunogenum group
  MIC: >8 µg/mL
[1]; isolate 36, M. immunogenum group
  MIC: 1 µg/mL (≈ 2.25 µM)
[1]; isolate 37, M. immunogenum group
  MIC: >8 µg/mL
[1]; isolate 38, M. immunogenum group
  MIC: >8 µg/mL
[2]; isolate 23, M. fortuitum group, M. fortuitum
  MIC: ≤0.12 µg/mL
[2]; isolate 24, M. fortuitum group, M. fortuitum
  MIC: 0.25 µg/mL (≈ 0.563 µM)
[2]; isolate 25, M. fortuitum group, M. fortuitum
  MIC: >8 µg/mL
[2]; isolate 26, M. fortuitum group, M. porcinum
  MIC: 4 µg/mL (≈ 9 µM)
[2]; isolate 27, M. fortuitum group, M. porcinum
  MIC: 8 µg/mL (≈ 18 µM)
[2]; isolate 28, M. fortuitum group, M. porcinum/M. boenickei
  MIC: 2 µg/mL (≈ 4.5 µM)
[2]; isolate 29, M. fortuitum group, M. porcinum/M. boenickei
  MIC: >8 µg/mL
[2]; isolate 30, M. fortuitum group, M. porcinum/M. boenickei
  MIC: >8 µg/mL
[2]; isolate 31, M. fortuitum group, M. senegalense
  MIC: ≤0.12 µg/mL
[2]; isolate 32, M. fortuitum group, M. senegalense
  MIC: ≤0.12 µg/mL
[2]; isolate 33, M. fortuitum group, M. senegalense
  MIC: ≤0.12 µg/mL
[2]; isolate 34, M. fortuitum group, M. senegalense
  MIC: ≤0.12 µg/mL
[3]; isolate 39, M. mucogenicum group, M. mucogenicum
  MIC: 0.25 µg/mL (≈ 0.563 µM)
[3]; isolate 40, M. mucogenicum group, M. mucogenicum
  MIC: ≤0.12 µg/mL
[3]; isolate 41, M. mucogenicum group, M. mucogenicum
  MIC: ≤0.12 µg/mL
[3]; isolate 42, M. mucogenicum group, M. mucogenicum
  MIC: ≤0.12 µg/mL
[3]; isolate 43, M. mucogenicum group, M. phocaicum
  MIC: ≤0.12 µg/mL
[3]; isolate 44, M. mucogenicum group, M. phocaicum
  MIC: >8 µg/mL
[3]; isolate 45, M. mucogenicum group, M. phocaicum
  MIC: >8 µg/mL
[3]; isolate 46, M. mucogenicum group, M. phocaicum
  MIC: >8 µg/mL
[3]; isolate 47, M. mucogenicum group, M. phocaicum
  MIC: 0.25 µg/mL (≈ 0.563 µM)
[3]; isolate 48, M. mucogenicum group, M. phocaicum
  MIC: 4 µg/mL (≈ 9 µM)
[4]
  in vitro activity (in words): very low activity
[5]; isolate 49, M. smegmatis group, M. goodii
  MIC: ≤0.12 µg/mL
[5]; isolate 50, M. smegmatis group, M. wolinskyi
  MIC: 1 µg/mL (≈ 2.25 µM)
[6]; isolate 1, M. abscessus complex, erm gene type MAB30
  MIC: >8 µg/mL
[6]; isolate 2, M. abscessus complex, erm gene type MAB30
  MIC: >8 µg/mL
[6]; isolate 3, M. abscessus complex, erm gene type MAB30
  MIC: >8 µg/mL
[6]; isolate 4, M. abscessus complex, erm gene type massiliense
  MIC: >8 µg/mL
[6]; isolate 5, M. abscessus complex, erm gene type massiliense/subsp. abs hybrid
  MIC: >8 µg/mL
[6]; isolate 6, M. abscessus complex, erm gene type Type 1 abscessus
  MIC: >8 µg/mL
[6]; isolate 7, M. abscessus complex, erm gene type Type 1 abscessus
  MIC: >8 µg/mL
[6]; isolate 8, M. abscessus complex, erm gene type Type 1 abscessus
  MIC: >8 µg/mL
[6]; isolate 9, M. abscessus complex, erm gene type Type 1 abscessus
  MIC: >8 µg/mL
[6]; isolate 10, M. abscessus complex, erm gene type Type 1 abscessus
  MIC: >8 µg/mL
[6]; isolate 11, M. abscessus complex, erm gene type Type 6 abscessus
  MIC: >8 µg/mL
[6]; isolate 12, M. abscessus complex, erm gene type Type 6 abscessus
  MIC: >8 µg/mL
[6]; isolate 13, M. abscessus complex, erm gene type Type 6 abscessus
  MIC: >8 µg/mL
[6]; isolate 14, M. abscessus complex, erm gene type Type 6 abscessus
  MIC: 8 µg/mL (≈ 18 µM)
[6]; isolate 15, M. abscessus complex, erm gene type Type 7 abscessus
  MIC: >8 µg/mL
[6]; isolate 16, M. abscessus complex, erm gene type Type 7 abscessus
  MIC: >8 µg/mL
[6]; isolate 17, M. abscessus complex, erm gene type Type 8 abscessus
  MIC: >8 µg/mL
[7]
  MIC50: >8 µg/mL
  MIC90: >8 µg/mL
[8]; 22 clinical isolates
  MIC50: 32 µg/mL (≈ 72 µM)
  MIC90: 64 µg/mL (≈ 144 µM)
[8]; isolate No. 1, MC 7323
  MIC: 64 µg/mL (≈ 144 µM)
[8]; isolate No. 2, MC 7534
  MIC: 32 µg/mL (≈ 72 µM)
[8]; isolate No. 3, MC 7368
  MIC: 64 µg/mL (≈ 144 µM)
[8]; isolate No. 4, MC 7514
  MIC: 32 µg/mL (≈ 72 µM)
[8]; isolate No. 5, MC 7584
  MIC: 64 µg/mL (≈ 144 µM)
[8]; isolate No. 6, MC 7192
  MIC: 16 µg/mL (≈ 36 µM)
[8]; isolate No. 7, MC 7466
  MIC: 32 µg/mL (≈ 72 µM)
[8]; isolate No. 8, MC 7533
  MIC: 64 µg/mL (≈ 144 µM)
[8]; isolate No. 9, MC 7579
  MIC: 16 µg/mL (≈ 36 µM)
[8]; isolate No. 10, MC 7614
  MIC: 64 µg/mL (≈ 144 µM)
[8]; isolate No. 11, MC 7414
  MIC: 32 µg/mL (≈ 72 µM)
[8]; isolate No. 12, MC 7313
  MIC: 32 µg/mL (≈ 72 µM)
[8]; isolate No. 13, MC 7281
  MIC: 64 µg/mL (≈ 144 µM)
[8]; isolate No. 14, MC 7328
  MIC: 16 µg/mL (≈ 36 µM)
[8]; isolate No. 15, MC 7294
  MIC: 32 µg/mL (≈ 72 µM)
[8]; isolate No. 16, MC 14-S-03
  MIC: 64 µg/mL (≈ 144 µM)
[8]; isolate No. 17, MC 14-S-04
  MIC: 32 µg/mL (≈ 72 µM)
[8]; isolate No. 18, MC 14-S-05
  MIC: 32 µg/mL (≈ 72 µM)
[8]; isolate No. 19, MC 14-S-06
  MIC: 64 µg/mL (≈ 144 µM)
[8]; isolate No. 20, MC 14-S-07
  MIC: 32 µg/mL (≈ 72 µM)
[8]; isolate No. 21, MC 35757
  MIC: 32 µg/mL (≈ 72 µM)
[8]; isolate No. 22, MC 7302
  MIC: 64 µg/mL (≈ 144 µM)
[9]; 20 clinical isolates
  MIC50: 8 µg/mL (≈ 18 µM)
  MIC90: 64 µg/mL (≈ 144 µM)
[9]; isolate No. 1, 3349
  MIC: 16 µg/mL (≈ 36 µM)
[9]; isolate No. 2, 3499
  MIC: 0.06 µg/mL (≈ 0.135 µM)
[9]; isolate No. 3, 2797
  MIC: >64 µg/mL
[9]; isolate No. 4, 32
  MIC: 0.125 µg/mL (≈ 0.281 µM)
[9]; isolate No. 5, 33
  MIC: 0.125 µg/mL (≈ 0.281 µM)
[9]; isolate No. 6, 3489
  MIC: 8 µg/mL (≈ 18 µM)
[9]; isolate No. 7, 3491
  MIC: <0.06 µg/mL
[9]; isolate No. 8, 54
  MIC: <0.06 µg/mL
[9]; isolate No. 9, 38
  MIC: 0.5 µg/mL (≈ 1.13 µM)
[9]; isolate No. 10, 36
  MIC: 0.125 µg/mL (≈ 0.281 µM)
[9]; isolate No. 11, 3480
  MIC: 16 µg/mL (≈ 36 µM)
[9]; isolate No. 12, 3126
  MIC: 16 µg/mL (≈ 36 µM)
[9]; isolate No. 13, 3579
  MIC: 16 µg/mL (≈ 36 µM)
[9]; isolate No. 14, 7484
  MIC: 64 µg/mL (≈ 144 µM)
[9]; isolate No. 15, 3488
  MIC: 32 µg/mL (≈ 72 µM)
[9]; isolate No. 16, 3276
  MIC: 0.25 µg/mL (≈ 0.563 µM)
[9]; isolate No. 17, 3442
  MIC: 0.25 µg/mL (≈ 0.563 µM)
[9]; isolate No. 18, 3316
  MIC: 32 µg/mL (≈ 72 µM)
[9]; isolate No. 19, 3490
  MIC: 16 µg/mL (≈ 36 µM)
[9]; isolate No. 20, 2491
  MIC: >64 µg/mL
[10]; [12]
  MIC50: >64 µg/mL
  MIC90: >64 µg/mL
[10]; isolate No. 1, BB2
  MIC: >64 µg/mL
[10]; isolate No. 2, BB4
  MIC: 2 µg/mL (≈ 4.5 µM)
[10]; isolate No. 3, 5922
  MIC: 16 µg/mL (≈ 36 µM)
[10]; isolate No. 4, BB3
  MIC: 4 µg/mL (≈ 9 µM)
[10]; isolate No. 5, BB6
  MIC: 16 µg/mL (≈ 36 µM)
[10]; isolate No. 6, 5908
  MIC: >64 µg/mL
[10]; isolate No. 7, BB7
  MIC: 0.25 µg/mL (≈ 0.563 µM)
[10]; isolate No. 8, 6031
  MIC: 2 µg/mL (≈ 4.5 µM)
[10]; isolate No. 9, 5785
  MIC: 2 µg/mL (≈ 4.5 µM)
[10]; isolate No. 10, BB8
  MIC: >64 µg/mL
[10]; isolate No. 11, 6111
  MIC: >64 µg/mL
[10]; isolate No. 12, 6005
  MIC: >64 µg/mL
[10]; isolate No. 13, 5605
  MIC: >64 µg/mL
[10]; isolate No. 14, 5931
  MIC: 16 µg/mL (≈ 36 µM)
[10]; isolate No. 15, BB1
  MIC: >64 µg/mL
[10]; isolate No. 16, BB5
  MIC: >64 µg/mL
[10]; isolate No. 17, 5812
  MIC: >64 µg/mL
[10]; isolate No. 18, 5901
  MIC: >64 µg/mL
[10]; isolate No. 19, 5960
  MIC: 8 µg/mL (≈ 18 µM)
[10]; isolate No. 20, 6142
  MIC: >64 µg/mL
[10]; isolate No. 21, 5922
  MIC: 32 µg/mL (≈ 72 µM)
[10]; isolate No. 22, LT 949
  MIC: >64 µg/mL
[10]; isolate No. 23, 6025
  MIC: >64 µg/mL
[10]; isolate No. 24, 6153
  MIC: >64 µg/mL
[11]; isolate 18, M. chelonae
  MIC: >8 µg/mL
[11]; isolate 19, M. chelonae
  MIC: >8 µg/mL
[11]; isolate 20, M. chelonae
  MIC: >8 µg/mL
[11]; isolate 21, M. chelonae
  MIC: >8 µg/mL
[11]; isolate 22, M. chelonae
  MIC: >8 µg/mL

Source: patent US20250332178A1, “METHODS OF TREATING MYCOBACTERIAL INFECTIONS USING TETRACYCLINE COMPOUNDS” (priority 2018, published 2025)
